Data as given in US8735395B2, “Protease inhibitors” (Medivir AB, priority 2008, dated 2014).

Columns and labels:
human cathepsin S = human cathepsin S (Homo sapiens (Human), UniProt P25774); assay: Cathepsin S Ki determination; assay type: biochemical
Procedure: 280 μl/well of 12.5% DMSO are added to rows B-H of two columns of a 96 deep well polypropylene plate. […] 200 μl/well of assay buffer is added to columns 1 and 6. […] Mix row A using a multichannel pipette and double dilute to row G. Mix row H and read in the fluorescent spectrophotometer. […] The second test compound is added to column 6 of the top row, the third to column 1 of the second row etc. Add 1 μl of comparator to column 6 of the bottom row. Mix column 1 and double dilute to column 5. Mix column 6 and double dilute to column 10. Using an 8-channel multistepping pipette set to 5×10 μl, distribute 10 μl/well of substrate to the 384 well assay plate. Distribute the first column of the substrate dilution plate to all columns of the assay plate starting at row A. The tip spacing of the multichannel pipette will correctly skip alternate rows. Distribute the second column to all columns starting at row B. Using a 12-channel multistepping pipette set to 4×10 μl, distribute 10 μl/well of inhibitor to the 384 well assay plate. Distribute the first row of the inhibitor dilution plate to alternate rows of the assay plate starting at A1. The tip spacing of the multichannel pipette will correctly skip alternate columns. […] Mix 20 ml assay buffer and 20 μl 1M DTT. […] Using the a distributor such as a Multidrop 384, add 30 μl/well to all wells of the assay plate and read in fluorescent spectrophotomoter such as an Ascent. Fluorescent readings, (excitation and emission wavelengths 390 nm and 460 nm respectively, set using bandpass filters) reflecting the extent of enzyme cleavage of the fluorescent substrate, notwithstanding the inhibitor, are linear rate fitted for each well. […] Potential inhibitors are screened using the above assay with variable concentrations of test compound. Reactions were initiated by addition of enzyme to buffered solutions of substrate and inhibitor.

[1] = reference markers for the Caco-2 assay; cited from earlier work
[2] = biological target: human recombinant cathepsin K (Homo sapiens (Human), UniProt P43235); assay: Determination of cathepsin K proteolytic catalytic activity (Ki); assay type: biochemical
human recombinant cathepsin K, sequence (P43235 115-329): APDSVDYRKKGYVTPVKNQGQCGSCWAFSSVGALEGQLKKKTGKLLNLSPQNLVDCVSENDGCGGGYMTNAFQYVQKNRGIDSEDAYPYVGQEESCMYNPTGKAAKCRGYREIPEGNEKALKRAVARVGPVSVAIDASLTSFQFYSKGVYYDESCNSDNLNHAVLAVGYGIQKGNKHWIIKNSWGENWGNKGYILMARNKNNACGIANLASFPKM
Procedure: Determination of Cathepsin K Proteolytic Catalytic Activity
Convenient assays for cathepsin K are carried out using human recombinant enzyme, such as that described in PDB.
The recombinant cathepsin K can be expressed in a variety of commercially available expression systems including E coli, Pichia and Baculovirus systems. The purified enzyme is activated by removal of the prosequence by conventional methods.
The enzyme concentration used was 5 nM. The stock substrate solution was prepared at 10 mM in DMSO. Screens were carried out at a fixed substrate concentration of 60 μM and detailed kinetic studies with doubling dilutions of substrate from 250 μM. The total DMSO concentration in the assay was kept below 3%. All assays were conducted at ambient temperature. Product fluorescence (excitation at 390 nm, emission at 460 nm) was monitored with a Labsystems Fluoroskan Ascent fluorescent plate reader. Product progress curves were generated over 15 minutes following generation of AMC product.
(§1) Potential inhibitors are screened using the above assay with variable concentrations of test compound. Reactions were initiated by addition of enzyme to buffered solutions of substrate and inhibitor. Ki values were calculated according to equation 1.
where v0 is the velocity of the reaction, V is the maximal velocity, S is the concentration of substrate with Michaelis constant of KM, and I is the concentration of inhibitor.

human cathepsin L = human cathepsin L (Homo sapiens (Human), UniProt P07711); assay: Cathepsin L Ki; assay type: biochemical
human cathepsin L, sequence (P07711 114-333): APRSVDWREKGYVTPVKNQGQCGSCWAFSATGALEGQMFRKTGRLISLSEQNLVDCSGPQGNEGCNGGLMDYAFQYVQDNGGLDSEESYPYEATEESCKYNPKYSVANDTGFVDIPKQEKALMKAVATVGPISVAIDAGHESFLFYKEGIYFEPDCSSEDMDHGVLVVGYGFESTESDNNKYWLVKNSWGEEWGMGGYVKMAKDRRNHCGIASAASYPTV
Procedure: The procedure above with the following amendments is used for the determination of Ki for cathepsin L.
The enzyme is commercially available human cathepsin L (for example Calbiochem). The substrate is H-D-Val-Leu-Lys-AMC available from Bahcem. The assay buffer is 100 mM sodium acetate 1 mM EDTA, pH5.5) The DMSO stock (10 mM in 100% DMSO) is diluted to 10% in assay buffer. Enzyme is prepared at 5 nM concentration in assay buffer plus 1 mM dithiothreitol just before use. 2 ul of 10 mM inhibitor made up in 100% DMSO is dispensed into row A. 10 μl of 50 μM substrate (=1/200 dilution of 10 mM stock in DMSO, diluted in assay buffer)
as §1

[3] = In vivo mouse PK, oral administration (FIG. 1); details: male C57BI mice, oral 60 μmol/kg in 1% Methocel A4C; compared with Example 2 of WO2008 007107
Excerpt: FIG. 1 depicts plasma concentration against time for male C57BI mice orally administered a compound of the invention or a compound of the prior art.
Various embodiments of the invention will now be described by way of illustration only with reference to the following Examples and FIG. 1 which depicts plasma concentration against time for male C57BI mice orally administered a compound of the invention or a compound of the prior art.

Caco-2 permeability = details: human
[4] = Metabolic stability in whole blood (CLint); assay type: in vitro ADME
Procedure: (§2) Alternatively, an analogous stability assay is carried out in human or monkey whole blood and/or commercially available liver microsomes, such as XEN 025.

[5] = Metabolic stability in liver microsomes (HLM CLint); assay type: in vitro ADME; details: human
Procedure: as §2

human cathepsin S, sequence (P25774 115-331): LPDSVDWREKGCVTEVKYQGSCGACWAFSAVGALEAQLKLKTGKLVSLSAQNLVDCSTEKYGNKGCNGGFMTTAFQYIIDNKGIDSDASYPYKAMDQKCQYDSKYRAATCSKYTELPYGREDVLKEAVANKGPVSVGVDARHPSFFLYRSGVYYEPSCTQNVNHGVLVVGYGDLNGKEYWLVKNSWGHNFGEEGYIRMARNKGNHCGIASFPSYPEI

| Molecule | Ki (human cathepsin S; Test 2 or unnumbered test) [nM] | Ki ([2]; Test 2 or unnumbered test) [nM] | Ki (human cathepsin L; Test 2 or unnumbered test) [nM] | Ki ([2]; Test 1, class symbols) [nM] | Ki (human cathepsin L; Test 1, class symbols) [nM] | % absorption in man [1] [%] | also measured |
| --- | --- | --- | --- | --- | --- | --- | --- |
| N[C@@H](Cc1ccccc1)C(=O)O [L-Phenylalanine] | – | – | – | – | – | 100 | – |
| OC[C@@H](O)[C@@H](O)[C@H](O)[C@H](O)CO [Mannitol] | – | – | – | – | – | 16 | – |
| CN(Cc1cnc2nc(N)nc(N)c2n1)c1ccc(C(=O)N[C@@H](CCC(=O)O)C(=O)O)cc1 [Methotrexate] | – | – | – | – | – | 20 | – |
| C#C[C@@H]1CN(C(=O)[C@H](CC(C)C)NC(=O)c2ccc(-c3nc(N4CCN(C)CC4)sc3F)cc2)[C@@H]2C(=O)CO[C@H]12 [Example 2, N-[1-6-(ethynyl-3-oxo-hexahydro-furo[3,2-b]pyrrole-4-carbonyl)-3-methyl-butyl]-4-[5-fluoro-2-(4-methyl-piperazin-1-yl)thiazol-4-yl]-benzamide] | 21000 | 1.1 | 1700 | < 50 | 1000 to 5000 | – | Ki (human cathepsin S; Test 1, class symbols): > 10000 nM; in vivo exposure (Cmax or AUC) [3]: very much greater; Papp at 120 min, 10 µM (Caco-2 permeability): 9.1 ×10⁻⁶ cm/s |
| CC(C)C[C@H](NC(=O)c1ccc(-c2csc(N3CCN(C)CC3)n2)cc1)C(=O)N1C[C@@H](C)[C@H]2OCC(=O)[C@H]21 [comparative example] | – | – | – | – | – | – | estimated / calculated whole blood half life ([4]; calculated from whole blood CLint): little over an hour; microsomal CLint ([4]; whole blood): 9 µL/min/mg; whole blood CLint value ([4]; whole blood): 9 µL/min/mg; microsomal CLint [5]: 49 µL/min/mg |
| N—((S)-1-((3aS,6R,6aS)-6-methoxy-oxodihydro-2H-furo[3,2-b]pyrrol-4(5H,6H,6aH)-yl)-4-methyl-oxopentan-2-yl)-4-(2-(4-methylpiperazine-1-yl)thiazol-4-yl)benzamide | – | – | – | – | – | – | papp value (Caco-2 cells): 9e-07 cm/s |
| C#C[C@@H]1CN(C(=O)[C@H](CC(C)C)NC(=O)c2ccc(-c3csc(N4CCN(C)CC4)n3)c(F)c2)[C@@H]2C(=O)CO[C@H]12 [Example 3, N-[1-6-(ethynyl-3-oxo-hexahydro-furo[3,2-b]pyrrole-4-carbonyl)-3-methyl-butyl]-3-fluoro-4-[2-(4-methyl-piperazin-1-yl)thiazol-4-yl]-benzamide] | – | 4 | 1400 | < 50 | 501 to 1000 | – | – |

The next lines start with results.

| Ki (human cathepsin S; Test 2 or unnumbered test) [nM] | Ki ([2]; Test 2 or unnumbered test) [nM] | Ki (human cathepsin L; Test 2 or unnumbered test) [nM] | Ki ([2]; Test 1, class symbols) [nM] | Ki (human cathepsin L; Test 1, class symbols) [nM] | Molecule | % absorption in man [1] [%] | also measured |
| --- | --- | --- | --- | --- | --- | --- | --- |
| 6100 | – | – | – | – | CC(C)C[C@H](NC(=O)c1ccc(-c2csc(N3CCN(C)CC3)n2)cc1)C(=O)N1C[C@@H](C=C(Br)Br)[C@H]2OCC(=O)[C@H]21 [Ref Ex 9] | – | – |
| – | 2.7 | 300 | – | – | CC(C)=C[C@@H]1CN(C(=O)[C@H](CC(C)C)NC(=O)c2ccc(-c3nc(N4CCN(C)CC4)sc3F)cc2)[C@@H]2C(=O)CO[C@H]12 [Example 4, N-[1-6-(dimethylvinyl-3-oxo-hexahydro-furo[3,2-b]pyrrole-4-carbonyl)-3-methyl-butyl]-4-[5-fluoro-2-(4-methyl-piperazin-1-yl)thiazol-4-yl]-benzamide] | – | – |
| 25000 | 1.6 | 2000 | < 50 | 1000 to 5000 | C#C[C@@H]1CN(C(=O)[C@H](CC(C)C)NC(=O)c2ccc(-c3csc(N4CCN(C)CC4)n3)cc2)[C@@H]2C(=O)CO[C@H]12 [Example 1, N-[1-6-(ethynyl-3-oxo-hexahydro-furo[3,2-b]pyrrole-4-carbonyl)-3-methyl-butyl]-4-[2-(4-methyl-piperazin-1-yl)thiazol-4-yl]-benzamide] | – | Ki (human cathepsin S; Test 1, class symbols): > 10000 nM; microsomal CLint ([4]; whole blood): 3 µL/min/mg; microsomal CLint [5]: 16 µL/min/mg |
